According to the supplement of paper PMC10331698:
± gives the standard deviation of the averaged measurements.

Columns and labels:
Experiment in all cases: level (log10 ratio to DMSO vehicle control); higher = higher biomarker level / cell amount than vehicle control
[1] = compound: OCCCC(F)(F)C(F)(F)C(F)(F)C(F)(F)C(F)(F)C(F)(F)C(F)(F)F [7:3 Fluorotelomer alcohol]; conditions: 6700 nM; in DMSO
Procedure: (§1)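 BioMAP Diversity Plus panel of 12 human primary cell co-culture systems (3C, 4H, LPS, SAg, BT, BF4T, BE3C, CASM3C, HDF3CGF, KF3CT, MyoF, Mphg). Compounds were added 1 h before stimulation and left for 24 h (MyoF 48 h; BT 72 h for soluble read-outs or 6 d for IgG). Biomarkers were read by ELISA, cytotoxicity by SRB, PBMC viability and proliferation by Alamar Blue. Each well value was divided by the mean of 8 DMSO control wells on the same plate and log10 transformed; duplicate blinded samples were tested at 4 concentrations.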

Perfluorobutanoic acid = compound: O=C(O)C(F)(F)C(F)(F)C(F)(F)F [Perfluorobutanoic acid]; conditions: in DMSO
Procedure: as §1

Pentafluoropropionamide = compound: NC(=O)C(F)(F)C(F)(F)F [Pentafluoropropionamide]; conditions: in DMSO
Procedure: as §1

[2] = compound: FC(F)C(F)(F)COCC1CO1 [((2,2,3,3-Tetrafluoropropoxy)methyl)oxirane]; conditions: in DMSO
Procedure: as §1

Perfluoropropanoic acid = compound: O=C(O)C(F)(F)C(F)(F)F [Perfluoropropanoic acid]; conditions: in DMSO
Procedure: as §1

[3] = compound: O=C(O)C(F)(F)C(F)(F)C(F)(F)OC(F)(C(F)(F)F)C(F)(F)F [Perfluoro-4-isopropoxybutanoic acid]; conditions: in DMSO
Procedure: as §1

Perfluoroheptanoic acid = compound: O=C(O)C(F)(F)C(F)(F)C(F)(F)C(F)(F)C(F)(F)C(F)(F)F [Perfluoroheptanoic acid]; conditions: in DMSO
Procedure: as §1

## BF4T:CCL26/Eotaxin-3
[1]
  level (log10): -0.088 ± 0.17
Perfluorobutanoic acid; 6700 nM
  level (log10): -0.0225 ± 0.042
Perfluorobutanoic acid; 20000 nM
  level (log10): 0.0075 ± 0.0021
Perfluorobutanoic acid; 60000 nM
  level (log10): 0.008 ± 0.028
Pentafluoropropionamide; 6700 nM
  level (log10): -0.009 ± 0.017
Pentafluoropropionamide; 20000 nM
  level (log10): -0.0155 ± 0.023
Pentafluoropropionamide; 60000 nM
  level (log10): -0.0135 ± 0.011
[2]; 6700 nM
  level (log10): 0.005 ± 0.033
[2]; 20000 nM
  level (log10): 0.0055 ± 0.052
[2]; 60000 nM
  level (log10): 0.031 ± 0.05
Perfluoropropanoic acid; 6700 nM
  level (log10): -0.004 ± 0.031
Perfluoropropanoic acid; 20000 nM
  level (log10): -0.0105 ± 0.04
Perfluoropropanoic acid; 60000 nM
  level (log10): 0.03 ± 0.044
[3]; 6700 nM
  level (log10): -0.0055 ± 0.09
[3]; 20000 nM
  level (log10): -0.0185 ± 0.069
[3]; 60000 nM
  level (log10): -0.0105 ± 0.016
Perfluoroheptanoic acid; 6700 nM
  level (log10): 0.0145 ± 0.019
Perfluoroheptanoic acid; 20000 nM
  level (log10): -0.0055 ± 0.013
Perfluoroheptanoic acid; 60000 nM
  level (log10): -0.031 ± 0.081

## BF4T:CD54/ICAM-1
[1]
  level (log10): -0.0065 ± 0.022
Perfluorobutanoic acid; 6700 nM
  level (log10): 0.007 ± 0.0057
Perfluorobutanoic acid; 20000 nM
  level (log10): -0.002 ± 0.0071
Perfluorobutanoic acid; 60000 nM
  level (log10): -0.002 ± 0.018
Pentafluoropropionamide; 6700 nM
  level (log10): -0.021 ± 0.018
Pentafluoropropionamide; 20000 nM
  level (log10): -0.007 ± 0.014
Pentafluoropropionamide; 60000 nM
  level (log10): -0.019 ± 0.017
[2]; 6700 nM
  level (log10): -0.005 ± 0.0099
[2]; 20000 nM
  level (log10): -0.0065 ± 0.0064
[2]; 60000 nM
  level (log10): -0.002 ± 0.0057
Perfluoropropanoic acid; 6700 nM
  level (log10): 0.006 ± 0.021
Perfluoropropanoic acid; 20000 nM
  level (log10): -0.0045 ± 0.047
Perfluoropropanoic acid; 60000 nM
  level (log10): 0.018 ± 0.027
[3]; 6700 nM
  level (log10): -0.0095 ± 0.021
[3]; 20000 nM
  level (log10): -0.007 ± 0.0057
[3]; 60000 nM
  level (log10): -0.0115 ± 0.013
Perfluoroheptanoic acid; 6700 nM
  level (log10): -0.022 ± 0.0071
Perfluoroheptanoic acid; 20000 nM
  level (log10): -0.011 ± 0.0085
Perfluoroheptanoic acid; 60000 nM
  level (log10): 0.004 ± 0.0071

## BF4T:CD90
[1]
  level (log10): -0.004 ± 0.0028
Perfluorobutanoic acid; 6700 nM
  level (log10): -0.001 ± 0.0028
Perfluorobutanoic acid; 20000 nM
  level (log10): -0.0055 ± 0.00071
Perfluorobutanoic acid; 60000 nM
  level (log10): -0.0075 ± 0.0078
Pentafluoropropionamide; 6700 nM
  level (log10): -0.0025 ± 0.0064
Pentafluoropropionamide; 20000 nM
  level (log10): 0.0005 ± 0.0064
Pentafluoropropionamide; 60000 nM
  level (log10): -0.0045 ± 0.015
[2]; 6700 nM
  level (log10): -0.006 ± 0.03
[2]; 20000 nM
  level (log10): 0.004 ± 0.0057
[2]; 60000 nM
  level (log10): 0.014 ± 0.016
Perfluoropropanoic acid; 6700 nM
  level (log10): -0.003 ± 0.014
Perfluoropropanoic acid; 20000 nM
  level (log10): 0.003 ± 0.0014
Perfluoropropanoic acid; 60000 nM
  level (log10): 0 ± 0.016
[3]; 6700 nM
  level (log10): -0.002 ± 0.0057
[3]; 20000 nM
  level (log10): -0.025 ± 0.0028
[3]; 60000 nM
  level (log10): -0.0075 ± 0.012
Perfluoroheptanoic acid; 6700 nM
  level (log10): -0.01 ± 0.0042
Perfluoroheptanoic acid; 20000 nM
  level (log10): -0.001 ± 0.0014
Perfluoroheptanoic acid; 60000 nM
  level (log10): -0.0005 ± 0.0021

## BF4T:CD106/VCAM-1
[1]
  level (log10): -0.0255 ± 0.0021
Perfluorobutanoic acid; 6700 nM
  level (log10): -0.0185 ± 0.029
Perfluorobutanoic acid; 20000 nM
  level (log10): 0.0035 ± 0.028
Perfluorobutanoic acid; 60000 nM
  level (log10): 0.028 ± 0.072
Pentafluoropropionamide; 6700 nM
  level (log10): -0.001 ± 0.018
Pentafluoropropionamide; 20000 nM
  level (log10): -0.0045 ± 0.0021
Pentafluoropropionamide; 60000 nM
  level (log10): -0.016 ± 0.0071
[2]; 6700 nM
  level (log10): 0.003 ± 0.0028
[2]; 20000 nM
  level (log10): -0.003 ± 0.0057
[2]; 60000 nM
  level (log10): 0.0185 ± 0.043
Perfluoropropanoic acid; 6700 nM
  level (log10): -0.021 ± 0.065
Perfluoropropanoic acid; 20000 nM
  level (log10): 0.003 ± 0.072
Perfluoropropanoic acid; 60000 nM
  level (log10): 0.026 ± 0.095
[3]; 6700 nM
  level (log10): -0.042
[3]; 20000 nM
  level (log10): -0.035 ± 0.02
[3]; 60000 nM
  level (log10): -0.0065 ± 0.037
Perfluoroheptanoic acid; 6700 nM
  level (log10): -0.0015 ± 0.029
Perfluoroheptanoic acid; 20000 nM
  level (log10): 0.0115 ± 0.015
Perfluoroheptanoic acid; 60000 nM
  level (log10): 0.029 ± 0.0099

## BF4T:CXCL8/IL-8
[1]
  level (log10): 0.0165 ± 0.029
Perfluorobutanoic acid; 6700 nM
  level (log10): 0.0005 ± 0.012
Perfluorobutanoic acid; 20000 nM
  level (log10): 0.004 ± 0.0014
Perfluorobutanoic acid; 60000 nM
  level (log10): 0.0095 ± 0.033
Pentafluoropropionamide; 6700 nM
  level (log10): 0.019 ± 0.028
Pentafluoropropionamide; 20000 nM
  level (log10): 0.0175 ± 0.022
Pentafluoropropionamide; 60000 nM
  level (log10): 0.02 ± 0.02
[2]; 6700 nM
  level (log10): 0.0165 ± 0.013
[2]; 20000 nM
  level (log10): 0.003 ± 0.0042
[2]; 60000 nM
  level (log10): 0.0255 ± 0.021
Perfluoropropanoic acid; 6700 nM
  level (log10): 0.043 ± 0.037
Perfluoropropanoic acid; 20000 nM
  level (log10): 0.033 ± 0.035
Perfluoropropanoic acid; 60000 nM
  level (log10): 0.046 ± 0.052
[3]; 6700 nM
  level (log10): 0.0025 ± 0.0064
[3]; 20000 nM
  level (log10): 0.0145 ± 0.005
[3]; 60000 nM
  level (log10): 0.0235 ± 0.028
Perfluoroheptanoic acid; 6700 nM
  level (log10): 0.017 ± 0.028
Perfluoroheptanoic acid; 20000 nM
  level (log10): 0.0155 ± 0.013
Perfluoroheptanoic acid; 60000 nM
  level (log10): 0.0145 ± 0.036

## BF4T:IL-1alpha
[1]
  level (log10): -0.0045 ± 0.012
Perfluorobutanoic acid; 6700 nM
  level (log10): -0.0025 ± 0.029
Perfluorobutanoic acid; 20000 nM
  level (log10): 0.0085 ± 0.0064
Perfluorobutanoic acid; 60000 nM
  level (log10): 0.013 ± 0.014
Pentafluoropropionamide; 6700 nM
  level (log10): -0.0165 ± 0.0021
Pentafluoropropionamide; 20000 nM
  level (log10): -0.016 ± 0.021
Pentafluoropropionamide; 60000 nM
  level (log10): 0.0065 ± 0.021
[2]; 6700 nM
  level (log10): -0.0025 ± 0.00071
[2]; 20000 nM
  level (log10): -0.009 ± 0.0099
[2]; 60000 nM
  level (log10): 0.021 ± 0.03
Perfluoropropanoic acid; 6700 nM
  level (log10): -0.0325 ± 0.005
Perfluoropropanoic acid; 20000 nM
  level (log10): 0.002
Perfluoropropanoic acid; 60000 nM
  level (log10): 0.013 ± 0.03
[3]; 6700 nM
  level (log10): -0.008 ± 0.018
[3]; 20000 nM
  level (log10): -0.0245 ± 0.015
[3]; 60000 nM
  level (log10): -0.012 ± 0.023
Perfluoroheptanoic acid; 6700 nM
  level (log10): -0.0085 ± 0.023
Perfluoroheptanoic acid; 20000 nM
  level (log10): -0.0015 ± 0.005
Perfluoroheptanoic acid; 60000 nM
  level (log10): 0.013 ± 0.0099

## BF4T:Keratin 8/18
[1]
  level (log10): 0.0045 ± 0.0035
Perfluorobutanoic acid; 6700 nM
  level (log10): -0.0015 ± 0.0092
Perfluorobutanoic acid; 20000 nM
  level (log10): -0.011 ± 0.011
Perfluorobutanoic acid; 60000 nM
  level (log10): 0.0075 ± 0.018
Pentafluoropropionamide; 6700 nM
  level (log10): 0.0075 ± 0.043
Pentafluoropropionamide; 20000 nM
  level (log10): 0.0395 ± 0.05
Pentafluoropropionamide; 60000 nM
  level (log10): 0.0075 ± 0.032
[2]; 6700 nM
  level (log10): 0.0005 ± 0.005
[2]; 20000 nM
  level (log10): -0.008 ± 0.014
[2]; 60000 nM
  level (log10): -0.0025 ± 0.042
Perfluoropropanoic acid; 6700 nM
  level (log10): -0.032 ± 0.0028
Perfluoropropanoic acid; 20000 nM
  level (log10): -0.004 ± 0.0014
Perfluoropropanoic acid; 60000 nM
  level (log10): 0.027 ± 0.016
[3]; 6700 nM
  level (log10): -0.002 ± 0.0014
[3]; 20000 nM
  level (log10): -0.0115 ± 0.0021
[3]; 60000 nM
  level (log10): 0.0025 ± 0.011
Perfluoroheptanoic acid; 6700 nM
  level (log10): -0.0285 ± 0.0092
Perfluoroheptanoic acid; 20000 nM
  level (log10): -0.018 ± 0.0057
Perfluoroheptanoic acid; 60000 nM
  level (log10): 0.0045 ± 0.026

## BF4T:MMP-1
[1]
  level (log10): 0.0005 ± 0.018
Perfluorobutanoic acid; 6700 nM
  level (log10): 0.0045 ± 0.022
Perfluorobutanoic acid; 20000 nM
  level (log10): -0.01 ± 0.017
Perfluorobutanoic acid; 60000 nM
  level (log10): 0.0075 ± 0.015
Pentafluoropropionamide; 6700 nM
  level (log10): -0.005 ± 0.0099
Pentafluoropropionamide; 20000 nM
  level (log10): -0.0105 ± 0.0078
Pentafluoropropionamide; 60000 nM
  level (log10): 0.012 ± 0.016
[2]; 6700 nM
  level (log10): 0.016 ± 0.0085
[2]; 20000 nM
  level (log10): 0.007 ± 0.02
[2]; 60000 nM
  level (log10): 0.03 ± 0.021
Perfluoropropanoic acid; 6700 nM
  level (log10): 0.003 ± 0.0071
Perfluoropropanoic acid; 20000 nM
  level (log10): 0.0035 ± 0.029
Perfluoropropanoic acid; 60000 nM
  level (log10): 0.009 ± 0.033
[3]; 6700 nM
  level (log10): -0.0035 ± 0.022
[3]; 20000 nM
  level (log10): 0.0155 ± 0.026
[3]; 60000 nM
  level (log10): 0.027 ± 0.03
Perfluoroheptanoic acid; 6700 nM
  level (log10): -0.0005 ± 0.028
Perfluoroheptanoic acid; 20000 nM
  level (log10): 0.001 ± 0.03
Perfluoroheptanoic acid; 60000 nM
  level (log10): 0.039 ± 0.051
